Measured values published in patent publication US10214519B2, “Phosphatidylinositol 3-kinase inhibitors” (Gilead Sciences, Inc., priority 2016, dated 2019).

Target: PI3Kβ (Homo sapiens (Human), UniProt P42338)
Assay: PI3K isoform TR-FRET enzymatic assay (PI3Kβ)
Assay type: biochemical
Settings: 2× Km ATP, 30 minutes at 25° C.
Method: The compounds of formula (I) were characterized for their enzymatic activity against the PI3K isoforms. The activities were measured using a time-resolved fluorescence resonance energy transfer (TR-FRET) assay. TR-FRET monitored the formation of 3,4,5-inositol triphosphate molecule that competed with fluorescently labeled PIP3 for binding to the GRP-1 pleckstrin homology domain protein.
Class I PI3K isoforms were expressed and purified as heterodimeric recombinant proteins. All assay reagents and buffers for the TR-FRET assay were purchased from Millipore. […] The compounds were added to the assay solution and incubated for 30 minutes at 25° C. The reactions were terminated with a final concentration of 10 mM EDTA, 10 nM labeled-PIP3, and 35 nM Europium labeled GRP-1 detector protein before reading TR-FRET on an Envision plate reader (Ex: 340 nm; Em: 615/665 nm; 100 μs delay and 500 μs read window).
The results were normalized based on positive (1 μM wortmanin) and negative (DMSO) controls, and the IC50 values for PI3K α, β, δ, and γ were calculated from the fit of the dose-response curves to a four-parameter equation.

Sequence of PI3Kβ (P42338 whole entry, canonical isoform): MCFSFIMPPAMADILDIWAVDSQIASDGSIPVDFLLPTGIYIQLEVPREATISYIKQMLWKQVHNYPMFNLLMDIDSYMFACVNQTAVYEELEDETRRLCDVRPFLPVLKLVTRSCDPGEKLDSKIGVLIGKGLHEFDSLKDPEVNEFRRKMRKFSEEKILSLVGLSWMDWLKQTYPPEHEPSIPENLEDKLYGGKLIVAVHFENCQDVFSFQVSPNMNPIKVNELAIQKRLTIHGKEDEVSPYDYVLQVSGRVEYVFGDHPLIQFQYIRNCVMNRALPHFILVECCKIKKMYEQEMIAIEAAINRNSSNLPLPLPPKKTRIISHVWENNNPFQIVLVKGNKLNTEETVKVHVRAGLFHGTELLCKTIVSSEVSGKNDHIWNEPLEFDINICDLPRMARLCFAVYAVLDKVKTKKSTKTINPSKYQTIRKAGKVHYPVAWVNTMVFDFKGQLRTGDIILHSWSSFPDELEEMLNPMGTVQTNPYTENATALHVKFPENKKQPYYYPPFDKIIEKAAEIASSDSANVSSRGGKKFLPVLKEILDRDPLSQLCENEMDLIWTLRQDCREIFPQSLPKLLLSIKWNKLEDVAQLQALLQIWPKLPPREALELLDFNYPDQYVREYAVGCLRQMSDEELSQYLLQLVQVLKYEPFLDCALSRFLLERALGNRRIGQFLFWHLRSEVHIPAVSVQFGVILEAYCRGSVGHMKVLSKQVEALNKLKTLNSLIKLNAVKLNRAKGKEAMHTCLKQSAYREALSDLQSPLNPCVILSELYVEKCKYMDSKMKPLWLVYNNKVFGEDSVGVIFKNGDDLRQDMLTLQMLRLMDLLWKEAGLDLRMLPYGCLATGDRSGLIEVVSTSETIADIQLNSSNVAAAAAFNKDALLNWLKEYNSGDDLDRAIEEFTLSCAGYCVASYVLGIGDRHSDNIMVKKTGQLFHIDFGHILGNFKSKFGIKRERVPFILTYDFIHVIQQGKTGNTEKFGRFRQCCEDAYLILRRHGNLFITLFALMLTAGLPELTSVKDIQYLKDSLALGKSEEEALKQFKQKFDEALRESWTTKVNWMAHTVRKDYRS
Sequence of PI3Kβ (P27986 whole entry partner, canonical isoform): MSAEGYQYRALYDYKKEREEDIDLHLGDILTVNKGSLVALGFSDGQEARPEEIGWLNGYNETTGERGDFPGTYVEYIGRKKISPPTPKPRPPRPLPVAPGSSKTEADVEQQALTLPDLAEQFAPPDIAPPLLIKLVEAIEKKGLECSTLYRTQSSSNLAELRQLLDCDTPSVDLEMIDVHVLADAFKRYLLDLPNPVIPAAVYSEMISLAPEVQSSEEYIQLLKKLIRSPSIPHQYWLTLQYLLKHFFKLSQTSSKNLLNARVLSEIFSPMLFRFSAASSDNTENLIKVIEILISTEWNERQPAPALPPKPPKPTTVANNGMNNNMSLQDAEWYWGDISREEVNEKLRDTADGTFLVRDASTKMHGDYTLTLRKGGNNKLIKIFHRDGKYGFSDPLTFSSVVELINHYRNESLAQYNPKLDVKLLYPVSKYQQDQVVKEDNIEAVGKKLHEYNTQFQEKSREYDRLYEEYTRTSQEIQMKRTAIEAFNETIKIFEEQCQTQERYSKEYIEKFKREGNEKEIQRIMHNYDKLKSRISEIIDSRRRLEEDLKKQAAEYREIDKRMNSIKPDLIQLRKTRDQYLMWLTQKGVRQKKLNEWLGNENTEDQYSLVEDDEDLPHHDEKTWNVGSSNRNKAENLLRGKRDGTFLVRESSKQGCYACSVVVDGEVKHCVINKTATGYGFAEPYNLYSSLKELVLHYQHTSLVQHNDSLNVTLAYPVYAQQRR

Row | SMILES | IC50
1 | Cc1nnc(-c2cc(N3CCOCC3)cc3c2nc(-c2cccnc2)n3-c2ccnc3c(Cl)cccc23)[nH]1 [Example 23, 4-(1-(8-chloroquinolin-4-yl)-4-(5-methyl-4H-1,2,4-triazol-3-yl)-2-(pyridin-3-yl)-1H-benzo[d]imidazol-6-yl)morpholine] | 0.39 µM
2 | c1ccc2c(-n3c(C4COC4)nc4c(-c5nnc[nH]5)cc(N5CCOCC5)cc43)ccnc2c1 [Example 24, 4-(2-(oxetan-3-yl)-1-(quinolin-4-yl)-4-(4H-1,2,4-triazol-3-yl)-1H-benzo[d]imidazol-6-yl)morpholine] | 1.5 µM
3 | Cc1nnc(-c2cc(N3CCOCC3)cc3c2nc(-c2ccncc2)n3-c2ccnc3c(Cl)cccc23)[nH]1 [Example 25, 4-(1-(8-chloroquinolin-4-yl)-4-(5-methyl-4H-1,2,4-triazol-3-yl)-2-(pyridin-4-yl)-1H-benzo[d]imidazol-6-yl)morpholine] | 2.2 µM
4 | CCc1nc2c(-c3nnc(C)[nH]3)cc(N3CCOCC3)cc2n1-c1c(Cl)cnc2c(Cl)cccc12 [Example 26, 4-[3-(3,8-dichloroquinolin-4-yl)-2-ethyl-7-(5-methyl-4H-1,2,4-triazol-3-yl)benzimidazol-5-yl]morpholine] | 0.022 µM
5 | Cc1nc2c(-c3nnc[nH]3)cc(N3CCOCC3)cc2n1-c1c(Cl)cnc2c(F)cccc12 [Example 27, 4-[3-(3-chloro-8-fluoroquinolin-4-yl)-2-methyl-7-(4H-1,2,4-triazol-3-yl)benzimidazol-5-yl]morpholine] | 0.056 µM
6 | Clc1cccc2c(-n3c(C4CCC4)nc4c(-c5nnc[nH]5)cc(N5CCOCC5)cc43)ccnc12 [Example 30, 4-(1-(8-chloroquinolin-4-yl)-2-cyclobutyl-4-(4H-1,2,4-triazol-3-yl)-1H-benzo[d]imidazol-6-yl)morpholine] | 0.008 µM
7 | Clc1cccc2c(-n3c(CC4CC4)nc4c(-c5nnc[nH]5)cc(N5CCOCC5)cc43)ccnc12 [Example 32, 4-(1-(8-chloroquinolin-4-yl)-2-(cyclopropylmethyl)-4-(4H-1,2,4-triazol-3-yl)-1H-benzo[d]imidazol-6-yl)morpholine] | 0.009 µM
8 | CCCc1nc2c(-c3nnc[nH]3)cc(N3CCOCC3)cc2n1-c1ccnc2c(Cl)cc(F)cc12 [Example 33, 4-(1-(8-chloro-6-fluoroquinolin-4-yl)-2-propyl-4-(4H-1,2,4-triazol-3-yl)-1H-benzo[d]imidazol-6-yl)morpholine] | 0.01 µM
9 | Cc1nc2c(-c3nnc[nH]3)cc(N3CCOCC3)cc2n1-c1ccnc2c(Cl)cc(F)cc12 [Example 35, 4-(1-(8-chloro-6-fluoroquinolin-4-yl)-2-methyl-4-(4H-1,2,4-triazol-3-yl)-1H-benzo[d]imidazol-6-yl)morpholine] | 0.011 µM
10 | CCCc1nc2c(-c3nnc[nH]3)cc(N3CCOCC3)cc2n1-c1ccnc2c(C)ccc(F)c12 [Example 37, 4-(1-(5-fluoro-8-methylquinolin-4-yl)-2-propyl-4-(4H-1,2,4-triazol-3-yl)-1H-benzo[d]imidazol-6-yl)morpholine] | 0.011 µM
11 | CCCc1nc2c(-c3nnc[nH]3)cc(N3CCOCC3)cc2n1-c1ccnc2ccccc12 [Example 41, 4-(2-propyl-1-(quinolin-4-yl)-4-(4H-1,2,4-triazol-3-yl)-1H-benzo[d]imidazol-6-yl)morpholine] | 0.021 µM
12 | CCCc1nc2c(-c3nnc(C)[nH]3)cc(N3CCOCC3)cc2n1-c1ccnc2c(C)ccc(F)c12 [Example 43, 4-(1-(5-fluoro-8-methylquinolin-4-yl)-4-(5-methyl-4H-1,2,4-triazol-3-yl)-2-propyl-1H-benzo[d]imidazol-6-yl)morpholine] | 0.02 µM
13 | CCCc1nc2c(-c3nnc[nH]3)cc(N3CCOCC3)cc2n1-c1ccnc2c(F)ccc(F)c12 [Example 45, 4-(1-(5,8-difluoroquinolin-4-yl)-2-propyl-4-(4H-1,2,4-triazol-3-yl)-1H-benzo[d]imidazol-6-yl)morpholine] | 0.019 µM
14 | CCCc1nc2c(-c3nnc(C)[nH]3)cc(N3CCOCC3)cc2n1-c1ccnc2c(Cl)cccc12 [Example 46, 4-(1-(8-chloroquinolin-4-yl)-4-(5-methyl-4H-1,2,4-triazol-3-yl)-2-propyl-1H-benzo[d]imidazol-6-yl)morpholine] | 0.019 µM
15 | Cc1nnc(-c2cc(N3CCOCC3)cc3c2nc(C2CC2)n3-c2ccnc3c(Cl)cccc23)[nH]1 [Example 47, 4-(1-(8-chloroquinolin-4-yl)-2-cyclopropyl-4-(5-methyl-4H-1,2,4-triazol-3-yl)-1H-benzo[d]imidazol-6-yl)morpholine] | 0.018 µM
16 | CC(C)Cc1nc2c(-c3nnc[nH]3)cc(N3CCOCC3)cc2n1-c1ccnc2c(Cl)cccc12 [Example 50, 4-(1-(8-chloroquinolin-4-yl)-2-isobutyl-4-(4H-1,2,4-triazol-3-yl)-1H-benzo[d]imidazol-6-yl)morpholine] | 0.016 µM
17 | Cc1nnc(-c2cc(N3CCOCC3)cc3c2nc(C)n3-c2ccnc3c(F)ccc(F)c23)[nH]1 [Example 51, 4-(1-(5,8-difluoroquinolin-4-yl)-2-methyl-4-(5-methyl-4H-1,2,4-triazol-3-yl)-1H-benzo[d]imidazol-6-yl)morpholine] | 0.015 µM

More lines, now with the values ahead:

Row | IC50 | SMILES
18 | 0.28 µM | Cc1nnc(-c2cc(N3CCOCC3)cc3c2ncn3-c2ccnc3cc(F)ccc23)[nH]1 [Example 22, 4-(1-(7-fluoroquinolin-4-yl)-4-(5-methyl-4H-1,2,4-triazol-3-yl)-1H-benzo[d]imidazol-6-yl)morpholine]
19 | 0.003 µM | Fc1ccc(F)c2c(-n3cnc4c(-c5nnc[nH]5)cc(N5CCOCC5)cc43)ccnc12 [Example 28, 4-(1-(5,8-difluoroquinolin-4-yl)-4-(4H-1,2,4-triazol-3-yl)-1H-benzo[d]imidazol-6-yl)morpholine]
20 | 0.007 µM | Fc1ccc2c(-n3cnc4c(-c5nnc[nH]5)cc(N5CCOCC5)cc43)ccnc2c1Cl [Example 29, 4-(1-(8-chloro-7-fluoroquinolin-4-yl)-4-(4H-1,2,4-triazol-3-yl)-1H-benzo[d]imidazol-6-yl)morpholine]
21 | 0.009 µM | Fc1ccc2c(-n3c(CC4CC4)nc4c(-c5nnc[nH]5)cc(N5CCOCC5)cc43)ccnc2c1Cl [Example 31, 4-(1-(8-chloro-7-fluoroquinolin-4-yl)-2-(cyclopropylmethyl)-4-(4H-1,2,4-triazol-3-yl)-1H-benzo[d]imidazol-6-yl)morpholine]
22 | 0.01 µM | CCCc1nc2c(-c3nnc[nH]3)cc(N3CCOCC3)cc2n1-c1ccnc2c(Cl)c(F)ccc12 [Example 34, 4-(1-(8-chloro-7-fluoroquinolin-4-yl)-2-propyl-4-(4H-1,2,4-triazol-3-yl)-1H-benzo[d]imidazol-6-yl)morpholine]
23 | 0.011 µM | CC(C)c1nc2c(-c3nnc[nH]3)cc(N3CCOCC3)cc2n1-c1ccnc2c(Cl)cccc12 [Example 36, 4-(1-(8-chloroquinolin-4-yl)-2-isopropyl-4-(4H-1,2,4-triazol-3-yl)-1H-benzo[d]imidazol-6-yl)morpholine]
24 | 0.011 µM | Fc1ccc2c(-n3c(C4CC4)nc4c(-c5nnc[nH]5)cc(N5CCOCC5)cc43)ccnc2c1Cl [Example 38, 4-(1-(8-chloro-7-fluoroquinolin-4-yl)-2-cyclopropyl-4-(4H-1,2,4-triazol-3-yl)-1H-benzo[d]imidazol-6-yl)morpholine]
25 | 0.011 µM | Cc1nc2c(-c3nnc[nH]3)cc(N3CCOCC3)cc2n1-c1ccnc2c(Cl)c(F)ccc12 [Example 39, 4-(1-(8-chloro-7-fluoroquinolin-4-yl)-2-methyl-4-(4H-1,2,4-triazol-3-yl)-1H-benzo[d]imidazol-6-yl)morpholine]
26 | 0.022 µM | Cc1nnc(-c2cc(N3CCOCC3)cc3c2ncn3-c2ccnc3c(Cl)c(F)ccc23)[nH]1 [Example 40, 4-(1-(8-chloro-7-fluoroquinolin-4-yl)-4-(5-methyl-4H-1,2,4-triazol-3-yl)-1H-benzo[d]imidazol-6-yl)morpholine]
27 | 0.02 µM | COCCc1nc2c(-c3nnc[nH]3)cc(N3CCOCC3)cc2n1-c1ccnc2c(F)cccc12 [Example 42, 4-(1-(8-fluoroquinolin-4-yl)-2-(2-methoxyethyl)-4-(4H-1,2,4-triazol-3-yl)-1H-benzo[d]imidazol-6-yl)morpholine]
28 | 0.019 µM | Cc1nnc(-c2cc(N3CCOCC3)cc3c2ncn3-c2ccnc3c(F)ccc(F)c23)[nH]1 [Example 44, 4-(1-(5,8-difluoroquinolin-4-yl)-4-(5-methyl-4H-1,2,4-triazol-3-yl)-1H-benzo[d]imidazol-6-yl)morpholine]
29 | 0.018 µM | CCCc1nc2c(-c3nnc[nH]3)cc(N3CCOCC3)cc2n1-c1ccnc2c(Cl)ccc(F)c12 [Example 48, 4-(1-(8-chloro-5-fluoroquinolin-4-yl)-2-propyl-4-(4H-1,2,4-triazol-3-yl)-1H-benzo[d]imidazol-6-yl)morpholine]
30 | 0.018 µM | CCCc1nc2c(-c3nnc[nH]3)cc(N3CCOCC3)cc2n1-c1ccnc2c(F)c(F)ccc12 [Example 49, 4-(1-(7,8-difluoroquinolin-4-yl)-2-propyl-4-(4H-1,2,4-triazol-3-yl)-1H-benzo[d]imidazol-6-yl)morpholine]
31 | 0.015 µM | Cc1nnc(-c2cc(N3CCOCC3)cc3c2nc(C)n3-c2ccnc3c(Cl)c(F)ccc23)[nH]1 [Example 52, 4-(1-(8-chloro-7-fluoroquinolin-4-yl)-2-methyl-4-(5-methyl-4H-1,2,4-triazol-3-yl)-1H-benzo[d]imidazol-6-yl)morpholine]
32 | 0.015 µM | Fc1ccc2c(-n3cnc4c(-c5nnc[nH]5)cc(N5CCOCC5)cc43)ccnc2c1 [Example 53, 4-(l-(7-fluoroquinolin-4-yl)-4-(4H-1,2,4-triazol-3-yl)-1H-benzo[d]imidazol-6-yl)morpholine]
